Assay results reported in PubChem BioAssay AID248 (DTP/NCI, 2004).
Where “and” joins values, the source holds several entries; their conditions need not be identical. Equal entries are not always repeated. Toxic doses and inconclusive results are not listed. Rule as the data show it: active = T/C of 150% or more; inactive = T/C below 125%.

Test system: L1210 leukemia ip in BDF1 mice, survival T/C
Test: NCI In Vivo Anticancer Drug Screen. Data for tumor model L1210 Leukemia (intraperitoneal) in B6D2F1 (BDF1) mice
Details: endpoint: mean survival time, higher = longer survival
Procedure, shortened: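 Transplantable tumor model; survival measured in treated vs vehicle control mice. Value = treated/control.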

[1] = dose: 100.0 mg/kg/injection, schedule: Q04DX002 (ip), vehicle: Klucel (hydroxypropylcellulose) (HPC)
[2] = dose: 200.0 mg/kg/injection, schedule: Q04DX002 (ip), vehicle: Klucel (hydroxypropylcellulose) (HPC)
[3] = dose: 400.0 mg/kg/injection, schedule: Q04DX002 (ip), vehicle: Klucel (hydroxypropylcellulose) (HPC)
[4] = dose: 100.0 mg/kg/injection, schedule: Q01DX009 (ip), vehicle: saline with Tween-80
[5] = dose: 200.0 mg/kg/injection, schedule: Q01DX009 (ip), vehicle: saline with Tween-80
[6] = dose: 100.0 mg/kg/injection, schedule: Q01DX001 (ip), vehicle: saline
[7] = dose: 200.0 mg/kg/injection, schedule: Q01DX001 (ip), vehicle: saline
[8] = dose: 400.0 mg/kg/injection, schedule: Q01DX001 (ip), vehicle: saline
[9] = dose: 50.0 mg/kg/injection, schedule: Q01DX001 (ip), vehicle: saline
[10] = dose: 100.0 mg/kg/injection, schedule: Q01DX001 (ip), vehicle: carboxymethylcellulose (CMC)
[11] = dose: 200.0 mg/kg/injection, schedule: Q01DX001 (ip), vehicle: carboxymethylcellulose (CMC)
[12] = dose: 400.0 mg/kg/injection, schedule: Q01DX001 (ip), vehicle: carboxymethylcellulose (CMC)

Measured: T/C

C1CCC(N(CCN(C2CCCCC2)C2CCCCC2)C2CCCCC2)CC1
inactive: dose: 25.0 mg/kg/injection, schedule: Q04DX013 (ip), vehicle: carboxymethylcellulose (CMC) 100 % of control | dose: 50.0 mg/kg/injection, schedule: Q04DX013 (ip), vehicle: carboxymethylcellulose (CMC) 94 % of control | dose: 100.0 mg/kg/injection, schedule: Q04DX013 (ip), vehicle: carboxymethylcellulose (CMC) 96 % of control

O=C1OC(=O)C2C3C=CC3C12 (configuration not stated)
inactive: [1] 95 % of control | [2] 100 % of control | [3] 92 % of control

c1ccc2nc3nc4ccccc4nc3nc2c1
inactive: dose: 5.0 mg/kg/injection, schedule: Q04DX002 (ip), vehicle: gum acacia 90 % of control | dose: 10.0 mg/kg/injection, schedule: Q04DX002 (ip), vehicle: gum acacia 93 % of control | dose: 20.0 mg/kg/injection, schedule: Q04DX002 (ip), vehicle: gum acacia 93 % of control and 94 % of control | dose: 75.0 mg/kg/injection, schedule: Q01DX001 (ip), vehicle: other 102 % of control | dose: 100.0 mg/kg/injection, schedule: Q04DX002 (ip), vehicle: saline with Tween-80 106 % of control | dose: 150.0 mg/kg/injection, schedule: Q01DX001 (ip), vehicle: other 98 % of control | dose: 200.0 mg/kg/injection, schedule: Q04DX002 (ip), vehicle: saline with Tween-80 100 % of control | dose: 300.0 mg/kg/injection, schedule: Q01DX001 (ip), vehicle: other 103 % of control | dose: 400.0 mg/kg/injection, schedule: Q04DX002 (ip), vehicle: saline with Tween-80 91 % of control

NS(=O)(=O)c1ccc(-c2ccc([As](=O)(O)O)cc2)cc1
inactive: dose: 5.0 mg/kg/injection, schedule: Q01DX001 (ip), vehicle: saline 96 % of control | dose: 10.0 mg/kg/injection, schedule: Q01DX001 (ip), vehicle: saline 87 % of control | dose: 20.0 mg/kg/injection, schedule: Q01DX001 (ip), vehicle: saline 98 % of control | dose: 40.0 mg/kg/injection, schedule: Q01DX001 (ip), vehicle: saline 96 % of control | dose: 80.0 mg/kg/injection, schedule: Q01DX001 (ip), vehicle: saline 98 % of control

Cc1cc(OS(C)(=O)=O)ccc1OS(C)(=O)=O
inactive: [4] 94 % of control | dose: 100.0 mg/kg/injection, schedule: Q04DX003 (ip), vehicle: saline with Tween-80 98 % of control | [5] 94 % of control | dose: 200.0 mg/kg/injection, schedule: Q04DX003 (ip), vehicle: saline with Tween-80 94 % of control | dose: 400.0 mg/kg/injection, schedule: Q01DX009 (ip), vehicle: saline with Tween-80 92 % of control | dose: 400.0 mg/kg/injection, schedule: Q04DX003 (ip), vehicle: saline with Tween-80 98 % of control

CC(C)c1ccc([N+](=O)[O-])cc1
inactive: [4] 96 % of control | [5] 106 % of control

Cc1cc(CC(=O)c2ccccc2)[nH]c(=O)c1
inactive: [6] 103 % of control | [7] 101 % of control | [8] 101 % of control

O=c1c(-c2ccccc2)c(S)sc(S)c1-c1ccccc1
inactive: dose: 100.0 mg/kg/injection, schedule: Q04DX002 (ip), vehicle: gum acacia 93 % of control | dose: 200.0 mg/kg/injection, schedule: Q04DX002 (ip), vehicle: gum acacia 104 % of control | dose: 400.0 mg/kg/injection, schedule: Q04DX002 (ip), vehicle: gum acacia 93 % of control

CCCCCC1(C=O)C(=O)NC(=O)N1C (configuration not stated)
inactive: [6] 102 % of control | [7] 93 % of control | [8] 87 % of control

CC1=C(Cl)C(=N\S(=O)(=O)c2ccccc2)/c2ccccc2/C1=N/S(=O)(=O)c1ccccc1
inactive: dose: 100.0 mg/kg/injection, schedule: Q01DX001 (ip), vehicle: saline sonified 101 % of control | dose: 200.0 mg/kg/injection, schedule: Q01DX001 (ip), vehicle: saline sonified 100 % of control | dose: 400.0 mg/kg/injection, schedule: Q01DX001 (ip), vehicle: saline sonified 102 % of control

Clc1ccc(C(c2ccccc2Cl)C(Cl)Cl)cc1 (configuration not stated)
inactive: dose: 62.5 mg/kg/injection, schedule: Q01DX009 (sc), vehicle: steriod suspending solution 98 % of control and 101 % of control | dose: 62.5 mg/kg/injection, schedule: Q01DX010 (sc), vehicle: saline 91 % of control | dose: 62.5 mg/kg/injection, schedule: Q01DX010 (sc), vehicle: steriod suspending solution 102 % of control | dose: 125.0 mg/kg/injection, schedule: Q01DX009 (sc), vehicle: steriod suspending solution 98 % of control and 103 % of control | dose: 125.0 mg/kg/injection, schedule: Q01DX010 (sc), vehicle: saline 102 % of control | dose: 125.0 mg/kg/injection, schedule: Q01DX010 (sc), vehicle: steriod suspending solution 98 % of control | dose: 250.0 mg/kg/injection, schedule: Q01DX009 (sc), vehicle: steriod suspending solution 97 % of control and 100 % of control | dose: 250.0 mg/kg/injection, schedule: Q01DX010 (sc), vehicle: saline 91 % of control | dose: 250.0 mg/kg/injection, schedule: Q01DX010 (sc), vehicle: steriod suspending solution 102 % of control | dose: 500.0 mg/kg/injection, schedule: Q01DX009 (sc), vehicle: steriod suspending solution 97 % of control and 101 % of control | dose: 500.0 mg/kg/injection, schedule: Q01DX010 (sc), vehicle: saline 94 % of control | dose: 500.0 mg/kg/injection, schedule: Q01DX010 (sc), vehicle: steriod suspending solution 98 % of control

Oc1ccc2c(c1)Cc1cc3ccccc3nc1-2
inactive: [9] 98 % of control | [6] 95 % of control | [7] 97 % of control | [8] 93 % of control

CCCCCCCCCCCCCCCCCC1=Nc2ccccc2NC(=O)C1
inactive: [10] 98 % of control | [11] 98 % of control | [12] 93 % of control

O=C(c1ccc(Cl)cc1Cl)C(Cl)Cl
inactive: dose: 30.0 mg/kg/injection, schedule: Q01DX015 (ip), vehicle: saline 98 % of control | dose: 60.0 mg/kg/injection, schedule: Q01DX015 (ip), vehicle: saline 91 % of control | dose: 120.0 mg/kg/injection, schedule: Q01DX015 (ip), vehicle: saline 98 % of control

S=c1nc[nH]c2ccccc12
inactive: dose: 100.0 mg/kg/injection, schedule: Q01DX009 (ip), vehicle: Klucel (hydroxypropylcellulose) (HPC) 93 % of control | dose: 100.0 mg/kg/injection, schedule: Q04DX003 (ip), vehicle: Klucel (hydroxypropylcellulose) (HPC) 91 % of control | dose: 200.0 mg/kg/injection, schedule: Q01DX009 (ip), vehicle: Klucel (hydroxypropylcellulose) (HPC) 95 % of control | dose: 200.0 mg/kg/injection, schedule: Q04DX003 (ip), vehicle: Klucel (hydroxypropylcellulose) (HPC) 94 % of control | dose: 400.0 mg/kg/injection, schedule: Q01DX009 (ip), vehicle: Klucel (hydroxypropylcellulose) (HPC) 88 % of control | dose: 400.0 mg/kg/injection, schedule: Q04DX003 (ip), vehicle: Klucel (hydroxypropylcellulose) (HPC) 98 % of control

OCC(O)C(O)C(O)C1COC(CBr)O1 (configuration not stated)
inactive: [1] 90 % of control | [2] 93 % of control | [3] 108 % of control

Cc1ccc(S(=O)(=O)C2CCCCC2)cc1
inactive: dose: 50.0 mg/kg/injection, schedule: Q01DX001 (ip), vehicle: carboxymethylcellulose (CMC) 96 % of control | [10] 107 % of control | [11] 102 % of control | [12] 102 % of control

CC(C)OC(=O)CC#N
inactive: [6] 103 % of control | [7] 103 % of control | [8] 103 % of control

Cc1ccccc1C1=CCCCCC1
inactive: [9] 93 % of control | [6] 93 % of control | [7] 98 % of control | [8] 107 % of control
